From publication PMC11574108, “4-Furanylvinylquinoline derivative as a new scaffold for the design of oxidative stress initiator and glucose transporter inhibitor drugs” (Scientific Reports, 2024)

What was measured:
Format in all cases: cell-based, human
[1] = test system: U-251; assay: Intracellular ROS level measurement (CellROX Green); details: 1 µM, after 9 h and 24 h
Experimental: (§1) The cells (9,000 per well) were seeded in 96-well plates and treated with at freshly prepared 1 µM solution of 13 for 3, 6, 9, 12, and 24 h. The ROS levels were measured immediately according to the CellROX Green Reagent procedure. Additionally, the number of cells in each well during measurement was estimated using Hoechst 33,342 (Molecular Probes™). Briefly, after treatment the medium was removed and […] mixture of CellROX Green Reagent ([…]) and Hoechst 33,342 ([…]) was added to each well. The plates were incubated for 30 min at 37 °C in the dark, and the fluorescence of samples was then measured using a multiplate reader (Synergy 4, Bio Tek). Readings were performed at 485 nm excitation and 520 nm emission, as well as at 345 nm excitation and 485 nm emission for the CellROX Green Reagent and Hoechst 33,342, respectively. ROS levels were calculated as the percentage relative to the untreated cell levels (control). The experiments were carried out three times.
(§2) To determine the ROS level, the fluorescent CellROX Green Reagent was used, being measured by a spectroscopic multi-plate reader. […] The ROS level was several percent higher compared to the control after only 3 h. After 24 h the amount of ROS increased by as much as 50% relative to the untreated cells. Similar observations were made in the case of the HCT 116 p53^+/+ cells. However, the generation of ROS was less pronounced, especially at the first time points. Nevertheless, after 24 h, the level of ROS was about 40% higher. […] The highest (20% growth) occurred after 9 h and 24 h. […] The intracellular ROS levels are rapidly regulated by activated p53, which initially decreases and then subsequently increases them[42]. The weaker response toward ROS generation in these cells might have been caused by the fact that U-251 cells are resistant to exposure to oxidative stress. […] Additionally, cancer cells with a p53 mutation have a higher level of ROS than those with the wild type. Some p53 mutants can gain oncogenic features that are described as “gain-of-function” (GOF), among them being U-251 cells. […]

[2] = test system: HCT 116 p53+/+; assay: as above; details: 1 µM, 24 h
Experimental: as §1, §2

[3] = test system: HCT 116 p53-/-; assay: as above; details: 1 µM, 24 h
Experimental: as §1, §2

[4] = test system: HO-1; assay: Western blot, HO-1 protein level; details: 24 h
Experimental: The cells (500,000) were seeded in 35 mm Petri dishes (Nunc) and incubated in a solution of the tested compound (0.5 µM and 1 µM) for 24 h and 48 h. The cells were then dissociated using trypsin, collected in Eppendorf tubes, and centrifuged at 2,000 rpm. Next, cell pellets were resuspended in complete RIPA buffer containing a Halt Protease Inhibitor Cocktail and Halt Phosphatase Inhibitor Cocktail along with 0.5 M EDTA (all reagents from Thermo Fisher Scientific) and lysed on ice for 20 min. Afterward, the lysates were sonicated and centrifuged at 10,000 rpm for 10 min at 4 °C. The obtained supernatants were collected for further analysis. The protein concentration was determined using a Micro BCA™ Protein Assay Kit (Thermo Fisher Scientific) according to the manufacturer’s procedure. Equal amounts of proteins (16 µg) were electrophoresed on SDS-Page gels and transferred onto nitrocellulose membranes. Novex Sharp Pre-Stained Protein Standard (Thermo Fisher Scientific) was used as a colored molecular weight marker. The membranes were blocked in 5% non-fat milk prepared in TPBS (PBS supplemented by 0.1% Tween-20) for 1 h. After blocking, the membranes were cut, and then incubated with specific primary monoclonal antibodies (all purchased from Cell Signaling) overnight at 4 °C. The antibodies for the target proteins (CDK1 Mouse mAb #9116, p53 Mouse mAb #2524, FAS Mouse mAb #8023, GLUT-1 Rabbit mAb #12939, HO-1 Rabbit mAb #5853, p21^Waf1/Cip1 Rabbit mAb #2947, PARP #9542) were diluted 1:1000, while the antibodies for the reference proteins (GAPDH Rabbit mAb #2118, β-actin Mouse mAb #3700, and vinculin Rabbit mAb #13901) were diluted 1:2000. The following day, the membranes were washed in TPBS and incubated with horseradish peroxidase (HRP)-conjugated secondary antibodies (Anti-rabbit IgG, HRP-linked Antibody #7074 or Anti-mouse IgG, HRP-linked Antibody #7076) for 1 h at room temperature. The membranes were then washed in TPBS and incubated with a SuperSignal™ West Pico Chemiluminescent Substrate (Thermo Fisher Scientific). […]

O=[N+]([O-])c1ccc(/C=C/c2ccnc3ccccc23)o1 [Compound 13]
ROS level increase relative to untreated cells [1]: 20% | ROS level increase relative to untreated cells [2]: about 40% | ROS level increase relative to untreated cells [3]: 50% | HO-1 protein level vs control ([4]; HCT 116 p53+/+, 1 µM): more than twelve-fold | HO-1 protein level vs control ([4]; HCT 116 p53-/-, 1 µM): six-fold | HO-1 protein level vs control ([4]; U-251, 1 µM): four-fold
